Laboratory results: ChEMBL document CHEMBL1201862, “PubChem BioAssay data set” (2004)
Calls of active or inactive are those of the source.

Legend:
[1] = biological target: T1, Short transient receptor potential channel 4 (Mus musculus, UniProt Q9QUQ5); assay: mouse TRPC4 channel activators, dose response, cell-based, HEK293 TRPC4/mu-opioid, Fluo-4 calcium (AID 434937); assay type: functional
T1 sequence (Q9QUQ5 whole entry): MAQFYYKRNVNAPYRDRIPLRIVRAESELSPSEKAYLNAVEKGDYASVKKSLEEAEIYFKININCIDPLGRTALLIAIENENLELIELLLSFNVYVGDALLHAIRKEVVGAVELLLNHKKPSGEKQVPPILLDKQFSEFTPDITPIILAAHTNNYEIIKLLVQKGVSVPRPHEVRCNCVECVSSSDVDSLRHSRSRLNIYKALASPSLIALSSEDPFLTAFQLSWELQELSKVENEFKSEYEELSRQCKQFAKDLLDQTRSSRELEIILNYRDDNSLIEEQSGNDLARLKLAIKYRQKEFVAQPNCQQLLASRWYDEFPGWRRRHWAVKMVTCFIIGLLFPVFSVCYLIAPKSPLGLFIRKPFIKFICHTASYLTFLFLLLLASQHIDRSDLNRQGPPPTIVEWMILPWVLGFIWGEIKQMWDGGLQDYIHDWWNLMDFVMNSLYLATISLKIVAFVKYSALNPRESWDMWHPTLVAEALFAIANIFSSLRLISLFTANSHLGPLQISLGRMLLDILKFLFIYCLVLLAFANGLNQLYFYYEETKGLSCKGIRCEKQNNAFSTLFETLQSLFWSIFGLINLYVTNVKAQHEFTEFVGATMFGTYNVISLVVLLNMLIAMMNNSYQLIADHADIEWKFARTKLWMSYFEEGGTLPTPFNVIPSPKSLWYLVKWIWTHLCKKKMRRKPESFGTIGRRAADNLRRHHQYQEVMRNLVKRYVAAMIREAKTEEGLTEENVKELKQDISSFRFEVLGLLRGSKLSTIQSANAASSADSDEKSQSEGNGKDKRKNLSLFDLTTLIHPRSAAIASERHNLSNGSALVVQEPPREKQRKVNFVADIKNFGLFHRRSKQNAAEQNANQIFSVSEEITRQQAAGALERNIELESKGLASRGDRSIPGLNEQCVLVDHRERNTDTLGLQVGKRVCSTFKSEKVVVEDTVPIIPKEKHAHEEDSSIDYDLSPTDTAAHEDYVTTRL

[2] = biological target: Delta-type opioid receptor (Homo sapiens, UniProt P41143); assay: Counterscreen for agonists of heterodimerization of the mu 1 (OPRM1) and delta 1 (OPRD1) opioid receptors: Luminescence-based cell-based high throughput dose response assay to identify agonists of OPRD1 homodimerization. [Related pubchem assays (depositor defined):AID504326, AID504355, AID504692, AID504904, AID504905]; assay type: functional
Chain of Delta-type opioid receptor (P41143 whole entry): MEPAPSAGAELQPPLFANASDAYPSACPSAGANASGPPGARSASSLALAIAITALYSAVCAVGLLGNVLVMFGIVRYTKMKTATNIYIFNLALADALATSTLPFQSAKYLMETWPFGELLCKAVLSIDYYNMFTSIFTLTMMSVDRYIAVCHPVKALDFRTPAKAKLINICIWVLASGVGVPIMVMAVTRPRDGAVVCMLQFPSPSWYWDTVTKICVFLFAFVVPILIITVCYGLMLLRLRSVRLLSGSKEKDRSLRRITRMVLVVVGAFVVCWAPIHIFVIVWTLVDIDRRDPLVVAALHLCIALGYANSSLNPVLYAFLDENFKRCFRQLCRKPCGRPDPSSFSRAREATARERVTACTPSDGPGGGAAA

Mu-type opioid receptor = Mu-type opioid receptor (Homo sapiens, UniProt P35372); assay: Counterscreen for agonists of heterodimerization of the mu 1 (OPRM1) and delta 1 (OPRD1) opioid receptors: Luminescence-based cell-based high throughput dose response assay to identify agonists of OPRM1 homodimerization.; assay type: functional;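 note: U2OS cells expressing OPRM1 and beta-arrestin as split beta-galactosidase partners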
Chain of Mu-type opioid receptor (P35372 whole entry): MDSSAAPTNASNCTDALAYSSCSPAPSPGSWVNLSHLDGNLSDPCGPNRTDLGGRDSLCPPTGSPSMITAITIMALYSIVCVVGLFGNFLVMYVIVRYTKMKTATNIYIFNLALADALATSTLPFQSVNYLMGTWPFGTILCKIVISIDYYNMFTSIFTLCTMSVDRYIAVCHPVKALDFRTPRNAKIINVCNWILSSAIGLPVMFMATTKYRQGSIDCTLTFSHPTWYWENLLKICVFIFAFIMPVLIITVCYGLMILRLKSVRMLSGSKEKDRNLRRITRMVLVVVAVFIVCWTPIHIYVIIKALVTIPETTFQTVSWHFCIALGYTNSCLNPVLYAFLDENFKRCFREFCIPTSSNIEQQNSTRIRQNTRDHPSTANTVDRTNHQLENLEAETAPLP

[3] = biological target: 5-hydroxytryptamine receptor 5A (Homo sapiens, UniProt P47898); assay: Counterscreen for agonists of OPRM1-OPRD1 heterodimerization: luminescence-based cell-based high throughput dose response assay to identify agonists of 5-hydroxytryptamine (serotonin) 5A receptor (HTR5A). [Related pubchem assays (depositor defined):AID504326, AID504355, AID504692, AID504904, AID504905]; assay type: functional
Chain of 5-hydroxytryptamine receptor 5A (P47898 whole entry, the tested form may be a part): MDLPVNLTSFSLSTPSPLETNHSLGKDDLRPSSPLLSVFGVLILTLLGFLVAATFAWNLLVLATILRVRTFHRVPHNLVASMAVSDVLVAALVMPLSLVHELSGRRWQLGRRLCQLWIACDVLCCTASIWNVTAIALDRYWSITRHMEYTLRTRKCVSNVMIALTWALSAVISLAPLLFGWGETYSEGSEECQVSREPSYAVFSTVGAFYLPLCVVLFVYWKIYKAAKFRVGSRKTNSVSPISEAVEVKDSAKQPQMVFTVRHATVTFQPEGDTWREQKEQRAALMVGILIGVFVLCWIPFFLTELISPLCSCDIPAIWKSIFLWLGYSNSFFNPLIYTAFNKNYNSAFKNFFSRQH

[4] = inhibitors of HIV Env-driven cell fusion, dose response, cherry-pick (AID 652057); assay type: functional, cell-based
[5] = ZM109 Env clade C HIV-1 fusion inhibitors, dose response, HeLa effector, CEM target cells, luciferase, cherry-pick (AID 652058); assay type: functional, cell-based
[6] = off-target signal loss in HeLa-CEM21 co-culture – HeLa F-luc CTL cells, cherry-picked, counter-screen for HIV-1 Env fusion inhibitor project, dose response (AID 652040); assay type: functional, cell-based;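 note: potency for signal decrease marking cytotoxic or nonspecific inhibition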
[7] = inhibitors of clade B AD8 Env fusion, dose response, cell-based, cherry-pick (AID 652062); assay type: functional;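 note: luciferase signal from cell-cell fusion driven by HIV-1 clade B AD8 Env; potency is for inhibitors of fusion seen as a drop in luminescence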
[8] = ADAM10 inhibitors, peptide cleavage, dose response, biochemical, QFRET (AID 743254);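 note: ADAM10 enzyme with the DM2 quenched FRET peptide as substrate; EDANS fluorescence gain as the protease cuts the substrate; inhibitor potency against ADAM10 proteolytic activity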
[9] = biological target: Disintegrin and metalloproteinase domain-containing protein 17 (Homo sapiens, UniProt P78536); assay: ADAM17 protease inhibitors, dose response, counter-screen for ADAM10 exosite inhibitor project, biochemical, quenched FRET substrate (AID 743253)
Chain of Disintegrin and metalloproteinase domain-containing protein 17 (P78536 whole entry, the tested form may be a part): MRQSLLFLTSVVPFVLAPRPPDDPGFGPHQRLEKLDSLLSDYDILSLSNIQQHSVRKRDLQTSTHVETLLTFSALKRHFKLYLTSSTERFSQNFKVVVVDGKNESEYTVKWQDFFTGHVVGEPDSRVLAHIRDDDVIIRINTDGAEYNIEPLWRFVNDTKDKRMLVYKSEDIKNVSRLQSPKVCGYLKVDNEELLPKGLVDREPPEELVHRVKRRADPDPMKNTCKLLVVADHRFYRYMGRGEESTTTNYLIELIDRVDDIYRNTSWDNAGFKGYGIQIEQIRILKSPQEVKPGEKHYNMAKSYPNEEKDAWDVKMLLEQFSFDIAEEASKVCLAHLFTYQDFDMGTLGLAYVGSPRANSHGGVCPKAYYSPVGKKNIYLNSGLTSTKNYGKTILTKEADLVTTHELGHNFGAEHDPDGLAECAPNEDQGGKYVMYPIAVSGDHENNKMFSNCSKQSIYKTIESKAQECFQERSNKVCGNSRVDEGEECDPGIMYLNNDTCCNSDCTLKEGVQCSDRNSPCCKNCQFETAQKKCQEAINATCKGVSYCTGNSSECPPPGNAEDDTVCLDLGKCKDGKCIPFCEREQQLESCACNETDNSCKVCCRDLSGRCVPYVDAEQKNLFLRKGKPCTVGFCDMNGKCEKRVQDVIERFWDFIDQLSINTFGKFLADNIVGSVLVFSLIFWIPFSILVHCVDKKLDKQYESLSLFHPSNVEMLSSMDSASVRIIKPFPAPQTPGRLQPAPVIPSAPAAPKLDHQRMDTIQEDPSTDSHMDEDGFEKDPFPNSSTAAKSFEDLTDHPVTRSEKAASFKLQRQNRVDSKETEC

HEK293 [10] = assay: cells; settings: Homo sapiens
HEK293 [11] = assay: cells; settings: Homo sapiens; remark: listed apart in the source
[12] = biological target: Lysine-specific demethylase 4C (Homo sapiens, UniProt Q9H3R0); assay: GASC-1 (JMJD2C) histone demethylase inhibitors, dose response, biochemical, DELFIA europium, cherry-picked samples (AID 488835); assay type: functional
Chain of Lysine-specific demethylase 4C (Q9H3R0 whole entry): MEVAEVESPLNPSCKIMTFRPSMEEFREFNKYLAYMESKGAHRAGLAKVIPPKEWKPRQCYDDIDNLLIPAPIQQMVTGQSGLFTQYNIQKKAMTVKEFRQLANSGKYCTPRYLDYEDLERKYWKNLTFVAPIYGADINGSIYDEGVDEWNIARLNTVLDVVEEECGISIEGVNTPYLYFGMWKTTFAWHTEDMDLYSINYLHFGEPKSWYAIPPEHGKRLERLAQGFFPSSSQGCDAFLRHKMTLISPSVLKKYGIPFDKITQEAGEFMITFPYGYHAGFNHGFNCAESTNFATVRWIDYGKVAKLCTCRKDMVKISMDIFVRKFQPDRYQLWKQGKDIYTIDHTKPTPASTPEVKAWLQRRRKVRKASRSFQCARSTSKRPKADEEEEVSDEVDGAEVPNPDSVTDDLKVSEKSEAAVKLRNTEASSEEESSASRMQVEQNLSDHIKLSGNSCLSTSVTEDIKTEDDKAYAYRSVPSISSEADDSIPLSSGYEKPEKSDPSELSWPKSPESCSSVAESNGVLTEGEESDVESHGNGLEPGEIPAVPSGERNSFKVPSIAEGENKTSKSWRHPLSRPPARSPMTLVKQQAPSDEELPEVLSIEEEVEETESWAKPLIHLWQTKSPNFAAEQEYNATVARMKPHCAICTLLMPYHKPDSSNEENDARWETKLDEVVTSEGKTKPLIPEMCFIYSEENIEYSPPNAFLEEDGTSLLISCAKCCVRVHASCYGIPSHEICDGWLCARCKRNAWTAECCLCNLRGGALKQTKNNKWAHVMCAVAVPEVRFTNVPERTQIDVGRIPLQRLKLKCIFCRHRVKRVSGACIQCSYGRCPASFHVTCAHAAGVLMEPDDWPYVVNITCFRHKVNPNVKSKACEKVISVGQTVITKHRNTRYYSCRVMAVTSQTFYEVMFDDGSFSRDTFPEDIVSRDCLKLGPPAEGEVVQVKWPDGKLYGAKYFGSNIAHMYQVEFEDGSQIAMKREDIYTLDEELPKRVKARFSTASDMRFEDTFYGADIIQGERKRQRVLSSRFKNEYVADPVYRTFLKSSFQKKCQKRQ

[13] = Luminescence Cell-Based Dose Retest to Confirm Inhibitors of Cancer Stem Cells. [Related pubchem assays (depositor defined):AID2717, AID2721]; assay type: functional; settings: Homo sapiens
[14] = cytotoxicity in HMLE control line with eGFP shRNA, dose response, counter-screen for HMLE_sh_ECad selective toxicity project, cell-based, HMLE_sh_eGFP, luminescence (AID 463074); assay type: functional, Homo sapiens;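 note: HMLE human mammary epithelial cells expressing control shRNA against eGFP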
Vero = assay: cells; assay type: functional; settings: Chlorocebus sabaeus

For `Cc1ccc(C)c(-n2cc(CNCCCn3cccn3)c(-c3ccccc3)n2)c1`, the EC50 [1] was 1.5 µM (active), the EC50 [2] was > 92.5 µM (inactive) and the EC50 (Mu-type opioid receptor) was 10.1 µM (inactive). The EC50 [3] was > 92.5 µM (inactive), the AC50 [4] was 1.28 µM (active) and the AC50 [5] was 0.631 µM (active). The AC50 [6] was 1.82 µM (active) and the AC50 [7] was 2.56 µM (active).

For `O=S(=O)(NCC(Nc1ccc(Cl)cc1)c1ccccc1)c1ccc(Cl)cc1` (stereo unspecified), the IC50 [8] was 11.7 µM (inactive), the IC50 [9] was > 69.5 µM (inactive) and the EC50 (HEK293 [10]) was > 59.7 µM (inactive). For the same molecule, the EC50 (HEK293 [11]) was > 59.7 µM (inactive).

With `Oc1cc(NC2CCCCCC2)nc(O)n1` the AC50 [12] was 8.69 µM (active).

With `Cc1cc(N/N=C/c2ccc(Cl)cc2Cl)nc(NCc2ccccc2)n1` the AC50 [13] was 3.49 µM (active), the AC50 [14] was 32.2 µM (active) and the CC50 (Vero) was > 25 µM (active).
